Tests used:
Type in all cases: cell-based
[1] = tested on: Crypthecodinium cohnii (ATCC 30541); assay: Culture of C. cohnii 30541 in acetic acid pH-stat fermenters with propionic acid (Example 3)
Method: The value of including propionic acid in the culture medium was also shown with another strain of Crypthecodinium cohnii (ATCC 30541). This strain was grown on acetic acid in pH-stat fermenters as described in Example 1 with and without the inclusion of propionic acid at 1% of the volume of the initial culture medium. [table]

[2] = tested on: Crypthecodinium cohnii 30772; assay: Culture of C. cohnii with glucose as main carbon source with propionic acid in the medium (Example 2); details: propionic acid 1% v/v, glucose 60 g/L
Method: The growth medium used for the third culture contained (initially) propionic acid (1% v/v), glucose (60 g/L—autoclaved separately), yeast extract (7.5 g/L) and sea salts (25 g). The growth medium used for the fourth culture was the same but with the propionic acid omitted. In each case, the pH was 6.5. The microorganism used was Crypthecodinium cohnii 30772. For each of the third and fourth cultures, the Crypthecodinium cohnii was grown in a 5 L fermenter. The cultures were initiated by inoculating 3.5 L of the appropriate growth medium with 350 ml of a 3 day old shaking-flask culture of Crypthecodinium cohnii. The inoculum for the third culture was prepared using the same growth medium as that used in the third culture (i.e., with propionic acid) and the inoculum for the fourth culture was prepared using the same growth medium as that used in the fourth culture (i.e., without propionic acid). Cultures were aerated at 1 volume of air per volume of culture per minute and the dissolved oxygen concentration was maintained above 30% of air saturation by increasing the stirrer speed as required, from an initial speed of 300 rpm. The growth temperature was 27° C. and the pH was maintained at 6.5 by addition of KOH (2 M) and H2SO4 (1 M).

[3] = tested on: Crypthecodinium cohnii ATCC 30772; assay: Culture of C. cohnii in acetic acid pH-stat fermenter with propionic acid in the medium (Example 1); details: propionic acid 1% v/v
Method: The growth medium used for the first culture contained (initially) propionic acid (1% v/v), sodium acetate (8 g/L), yeast extract (7.5 g/L) and sea salts (25 g/L). The growth medium used for the second culture was the same but with the propionic acid omitted. Before use, the pH of each growth medium was adjusted to 6.5 by the addition of NaOH and the medium was then autoclaved at 121° C. for 1 hour.
The first and second cultures used the strain of Crypthecodinium cohnii available from the American Type Culture Collection and identified by the number 30772 (C. cohnii ATCC 30772).
The apparatus included a 5 L fermenter 10 of known type. The fermenter 10 was provided with a pH electrode 11 that was positioned in the fermenter 10 for monitoring the pH of the growth medium in the fermenter 10. The pH electrode 11 was connected via a control device 12 to a pump 13. The control device 12 was programmed to cause the pump 13 to pump acetic acid (50% v/v) from a reservoir 14 into the fermenter 10 when the pH electrode 11 detected a pH greater than a predetermined value (in this case pH 6.5 for both the first and second cultures).
If, during the culture, the pH fell below 6.5, the pH was brought back to 6.5 by adding KOH (2M). This was done automatically.
The fermenter 10 was also provided with a thermometer (not shown) and a heater (not shown) arranged to maintain the growth medium (and the C. cohnii 30772) at a desired temperature within the fermenter 10 (in this case 27° C. for both the first and second cultures).
The fermenter 10 was also provided with an aerator (not shown) that was connected to a source of air (not shown) for aerating the growth medium within the fermenter 10. An oxygen sensor (not shown) was positioned for measuring dissolved oxygen concentration in the growth medium within the fermenter 10. A stirrer (not shown) was provided for stirring the growth medium (and the C. cohnii 30772). The oxygen sensor was connected to the stirrer by a control device (not shown) for varying the speed of the stirrer in response to the oxygen concentration detected by the oxygen sensor so as to maintain the oxygen concentration at a desired level. For both the first and second cultures the aerator was set to aerate the culture at a rate of 1 volume of air per volume of culture per minute. The control device connected to the oxygen sensor and the stirrer was set so that the dissolved oxygen concentration was maintained above 30% of air saturation (the initial stirrer speed being 300 rpm).
To start each culture, 3.5 L of the appropriate growth medium was added to the fermenter 10. An inoculum of C. cohnii 30772 in 880 ml medium containing acetic acid/acetate, yeast extract and sea salt was then added to the fermenter (the preparation of the inoculum is described below). The fermenter 10 was then closed and the culture was heated to the desired operating temperature, aerated and stirred as described above.
In both the first and second cultures, the control device 12 caused the pump 13 to pump acetic acid into the fermenter 10 so as to maintain the pH at 6.5. This process, sometimes referred to as pH-stat operation, is described in detail in WO 01/04338. Briefly, it is believed that the Crypthecodinium cohnii metabolises the acetate in the growth medium (either in the form of acetate or acetic acid) as a carbon source. […]
During the first and second cultures, samples of the cultures were taken at time intervals. Each sample was analysed to determine dry cell weight. […]

[4] = 1% propionic acid versus without
[5] = propionic acid 1%, samples after 140-150 hours growth
[6] = first culture, acetic acid pH-stat

CCC(=O)O [propionic acid]
increase in the amount of docosahexaenoic acid produced in the culture [1, 4]: about 85% | increase in the dry cell weight produced in the culture [1, 4]: over 60% | Cell dry wt [1, 5]: 75 g/L | DHA in lipid [1, 5]: 33 % w/w | Lipid in cells [1, 5]: 20 % w/w | Total DHA produced [1, 5]: 5 g/L | amount of total lipid produced relative to the fourth culture (without propionic acid) ([2]; FIG. 4): greater than twice | amount of docosahexaenoic acid produced relative to the fourth culture (without propionic acid) ([2]; FIG. 5): greater than twice | dry cell weight greater than in the fourth culture (without propionic acid) ([2]; later stages of the culture, FIG. 3): about 20% | amount of DHA produced (overall) [3, 6]: 6 to 8 g/L | cellular lipid content [3, 6]: 55-65 % of the dry cell weight | content of docosahexaenoic acid [3, 6]: 35-40 % of the total lipid | forms of the microorganism present (cysts / swimmers), microscopic observation ([3]; first culture, after 24 hours): only non-motile cysts were present | dry cell weight in the first culture (with propionic acid) relative to the second culture (without propionic acid) ([3]; acetic acid/acetate carbon source, later stages of the cultures, FIG. 2): approximately double

Reference: patent US7674609B2, “Culture of Crypthecodinium cohnii and microorganisms derived therefrom” (The University of Hull, priority 2001, dated 2010)
